The record followed here is patent US8153795B2, “Substituted 1-oxa-3,8-diazaspiro[4.5]-decan-2-one-compounds and the use thereof for producing drugs” (Gruenenthal GmbH, priority 2005, dated 2012).

For one assay, the target named is T1, NA transporter (Rattus norvegicus, UniProt Q63380).
T1 construct: from tissue; host or cells: rat brain synaptosomes (P2 fraction) from hypothalamus
Put plainly: noradrenalin uptake inhibition in rat brain synaptosomes (hypothalamus), [3H]-NA. The assay is classed as biochemical. The source says: a) Method for Determining Noradrenalin and 5-HT Uptake Inhibition:
Synaptosomes from rat brain regions are freshly isolated for in vitro studies, as described in the publication “The isolation of nerve endings from brain” by E. G. Gray and V. P. Whittaker, J. Anatomy 96, pages 79-88, 1962. The corresponding literature description is hereby introduced as a reference and is deemed to be part of the disclosure.
The tissue (hypothalamus for the determination of noradrenalin uptake inhibition and medulla and pons for the determination of 5-HT uptake inhibition) is homogenised in ice-cooled 0.32 M sucrose (100 mg of tissue/1 mL) in a glass homogeniser with Teflon pestle using five complete up and down strokes at 840 revolutions/minute.
The homogenate is centrifuged at 4° C. for 10 minutes at 1000 g. After subsequent centrifugation at 17000 g for 55 minutes, the synaptosomes (P2 fraction) are obtained, which are resuspended in 0.32 M […] (0.5 mL/100 mg of original weight).
The particular uptake is measured in a 96-well microtitre plate. The volume is 250 μl and the incubation proceeds at room temperature (approx. 20-25° C.) under an O2 atmosphere.
The incubation time is 7.5 minutes for [^3H]-NA and 5 minutes for [^3H]-5-HT. The 96 samples are then filtered through a Unifilter GF/B® microtitre plate (Packard) and washed with 200 mL of incubated buffer using a “Brabdel MPXRI-96T Cell-Harvester”. The Unifilter GF/B plate is dried for 1 hour at 55° C. The plate is then sealed with a Back Seal® (Packard) and 35 μl of scintillation fluid are added per well (Ultima Gold®, Packard). After sealing with a top Seal® (Packard) and establishing an equilibrium (around 5 hours), radioactivity is determined in a “Trilux 1450 Microbeta” (Wallac).
The quantity of protein used in the above determination corresponds to the values known from the literature, as for example described in “Protein measurement with the folin phenol reagent”, Lowry et al., J. Biol. Chem., 193, 265-275, 1951.
A detailed description of the method may additionally be found in the literature, for example in M. Ch. Frink, H.-H. Hennies, W. Engelberger, M. Haurand and B. Wilffert (1996) Arzneim.-Forsch./Drug Res. 46 (III), 11, 1029-1036.

A further assay addresses T2, 5-HT transporter (Rattus norvegicus, UniProt P31652).
T2 construct: from tissue; host or cells: rat brain synaptosomes (P2 fraction) from medulla and pons
Put plainly: 5-HT uptake inhibition in rat brain synaptosomes (medulla and pons), [3H]-5-HT. It is filed as biochemical. The method, boiled down:
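Freshly isolated P2 synaptosomes taken from rat hypothalamus (NA) or medulla/pons (5-HT) were incubated at room temperature under O2 with [3H]-NA for 7.5 min or [3H]-5-HT for 5 min. Uptake was measured as filter-retained radioactivity by scintillation counting.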

The term inhibition denotes the relative decrease from the control value, in per cent. Read a low inhibition as little suppression.

T1 sequence (Q63380 1-617): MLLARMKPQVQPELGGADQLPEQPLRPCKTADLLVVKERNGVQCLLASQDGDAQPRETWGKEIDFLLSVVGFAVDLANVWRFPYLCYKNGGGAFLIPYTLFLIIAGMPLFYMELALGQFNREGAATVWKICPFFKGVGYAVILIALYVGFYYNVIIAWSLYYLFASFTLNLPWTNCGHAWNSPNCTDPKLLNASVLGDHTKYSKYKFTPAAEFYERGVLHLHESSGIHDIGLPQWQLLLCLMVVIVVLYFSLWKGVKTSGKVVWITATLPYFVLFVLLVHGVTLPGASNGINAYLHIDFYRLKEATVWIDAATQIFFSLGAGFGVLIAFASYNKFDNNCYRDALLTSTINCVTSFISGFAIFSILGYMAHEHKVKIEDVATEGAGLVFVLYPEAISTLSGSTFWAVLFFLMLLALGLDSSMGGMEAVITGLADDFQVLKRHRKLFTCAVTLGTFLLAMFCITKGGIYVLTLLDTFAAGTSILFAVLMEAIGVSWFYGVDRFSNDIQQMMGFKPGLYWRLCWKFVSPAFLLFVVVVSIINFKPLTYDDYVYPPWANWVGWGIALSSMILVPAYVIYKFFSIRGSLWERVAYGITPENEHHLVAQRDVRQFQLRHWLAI
T2 sequence (P31652 whole entry): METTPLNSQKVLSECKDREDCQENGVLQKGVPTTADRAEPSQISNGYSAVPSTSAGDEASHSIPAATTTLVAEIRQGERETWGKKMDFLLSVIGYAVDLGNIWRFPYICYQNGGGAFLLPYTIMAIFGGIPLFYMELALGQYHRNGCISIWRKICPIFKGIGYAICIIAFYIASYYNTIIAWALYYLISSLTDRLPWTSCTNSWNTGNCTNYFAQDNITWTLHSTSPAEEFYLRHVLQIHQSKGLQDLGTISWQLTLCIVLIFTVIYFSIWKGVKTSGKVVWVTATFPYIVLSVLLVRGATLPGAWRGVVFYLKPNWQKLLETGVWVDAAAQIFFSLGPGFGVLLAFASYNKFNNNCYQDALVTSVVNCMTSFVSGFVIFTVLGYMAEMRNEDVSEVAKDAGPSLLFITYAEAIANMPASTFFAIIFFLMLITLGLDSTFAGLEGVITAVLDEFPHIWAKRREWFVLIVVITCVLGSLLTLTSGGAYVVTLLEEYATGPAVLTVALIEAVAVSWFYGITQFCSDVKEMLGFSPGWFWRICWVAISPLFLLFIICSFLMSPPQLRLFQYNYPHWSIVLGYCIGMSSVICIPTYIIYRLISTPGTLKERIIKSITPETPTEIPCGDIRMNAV

For `O=C1OC2(CCN(C(=S)Nc3cc(Cl)ccc3Cl)CC2)CN1Cc1cccc(Br)c1` [Example 2, 3-(3-bromobenzyl)-2-oxo-1-oxa-3,8-diazaspiro[4.5]decane-8-carbothioic acid (2,5-dichlorophenyl)amide], the inhibition at 10 µM against NA transporter was 64%; against 5-HT transporter it was 60%.
Compound `COCCNC(=S)N1CCC2(CC1)CN(Cc1cccc(Br)c1)C(=O)O2` [Example 5, 3-(3-bromobenzyl)-2-oxo-1-oxa-3,8-diazaspiro[4.5]decane-8-carbothioic acid (2-methoxyethyl)amide] gave an inhibition at 10 µM against NA transporter of 70%.
`COc1ccccc1NC(=S)N1CCC2(CC1)CN(Cc1cccc(Br)c1)C(=O)O2` [Example 6, 3-(3-bromobenzyl)-2-oxo-1-oxa-3,8-diazaspiro[4.5]decane-8-carbothioic acid (2-methoxyphenyl)amide]: the inhibition at 10 µM at NA transporter stood at 56%; against 5-HT transporter, 63%.
For `CC(=O)c1cccc(NC(=S)N2CCC3(CC2)CN(Cc2cc(C)cc(C)c2)C(=O)O3)c1` [Example 7, 3-(3,5-dimethylbenzyl)-2-oxo-1-oxa-3,8-diazaspiro[4.5]decane-8-carbothioic acid (3-acetylphenyl)amide], the inhibition at 10 µM against NA transporter was found to be 50%; against 5-HT transporter, 55%.
Take `Cc1ccccc1NC(=S)N1CCC2(CC1)CN(Cc1ccccc1)C(=O)O2` [Example 8, 3-benzyl-2-oxo-1-oxa-3,8-diazaspiro[4.5]decane-8-carbothioic acid o-tolylamide]: the inhibition at 10 µM on NA transporter was found to be 50%; at 5-HT transporter, 62%.
For `CCOC(=O)CC(C)NC(=S)N1CCC2(CC1)CN(Cc1cccc(Br)c1)C(=O)O2` (stereo not drawn) [Example 9, 3-{[3-(3-bromobenzyl)-2-oxo-1-oxa-3,8-diazaspiro[4.5]decane-8-carbothioyl]amino}butanoic acid ethyl ester], the inhibition at 10 µM on NA transporter was 81%.
For `C=CCNC(=S)N1CCC2(CC1)CN(Cc1ccc3ccccc3c1)C(=O)O2` [Example 10, 3-naphthalen-2-ylmethyl-2-oxo-1-oxa-3,8-diazaspiro[4.5]decane-8-carbothioic acid allylamide], the inhibition at 10 µM against NA transporter worked out at 78%; against 5-HT transporter, 50%.
For `CCOc1ccc(NC(=S)N2CCC3(CC2)CN(Cc2ccc(F)c(F)c2)C(=O)O3)cc1` [Example 13, 3-(3,4-difluorobenzyl)-2-oxo-1-oxa-3,8-diazaspiro[4.5]decane-8-carbothioic acid (4-ethoxyphenyl)amide], the figures for the inhibition at 10 µM against NA transporter and against 5-HT transporter were 53% and 44%, respectively.
Take `N#Cc1cccc(CN2CC3(CCN(C(=S)Nc4cc(Cl)cc(Cl)c4)CC3)OC2=O)c1` [Example 14, 3-(3-cyanobenzyl)-2-oxo-1-oxa-3,8-diazaspiro[4.5]decane-8-carbothioic acid (3,5-dichlorophenyl)amide]: the inhibition at 10 µM against NA transporter was determined as 49%; against 5-HT transporter, 57%.
`N#Cc1cccc(CN2CC3(CCN(C(=S)Nc4cccc(C(F)(F)F)c4)CC3)OC2=O)c1` [Example 15, 3-(3-cyanobenzyl)-2-oxo-1-oxa-3,8-diazaspiro[4.5]decane-8-carbothioic acid (3-trifluoromethylphenyl)amide]: the inhibition at 10 µM against NA transporter came to 55%; against 5-HT transporter, 57%.
In the same order, the values of `COc1ccc([N+](=O)[O-])cc1CN1CC2(CCN(C(=S)NCC3CCCO3)CC2)OC1=O` (stereo not drawn) [Example 17, 3-(2-methoxy-5-nitrobenzyl)-2-oxo-1-oxa-3,8-diazaspiro[4.5]decane-8-carbothioic acid (tetrahydrofuran-2-ylmethyl)amide] are 45% and 50%.
As to `O=C1OC2(CCN(C(=S)Nc3ccccc3)CC2)CN1Cc1ccccc1-c1ccccc1` [Example 18, 3-biphenyl-2-ylmethyl-2-oxo-1-oxa-3,8-diazaspiro[4.5]decan-8-carbothioic acid phenylamide], 10 µM produced 55% inhibition at NA transporter.
In the case of `N#Cc1cccc(CN2CC3(CCN(C(=S)NCC4CCCCC4)CC3)OC2=O)c1` [Example 19, 3-(3-cyanobenzyl)-2-oxo-1-oxa-3,8-diazaspiro[4.5]decane-8-carbothioic acid cyclohexylmethylamide], the inhibition at 10 µM came out at 48% against NA transporter and 69% against 5-HT transporter.
For `CC(=O)c1cccc(NC(=S)N2CCC3(CC2)CN(Cc2ccccc2F)C(=O)O3)c1` [Example 20, 3-(2-fluorobenzyl)-2-oxo-1-oxa-3,8-diazaspiro[4.5]decane-8-carbothioic acid (3-acetylphenyl)amide], on NA transporter, the inhibition at 10 µM was 48%.
`CCOc1ccc(NC(=O)N2CCC3(CC2)CN(Cc2ccccc2F)C(=O)O3)cc1` [Example 24, 3-(2-fluorobenzyl)-2-oxo-1-oxa-3,8-diazaspiro[4.5]decane-8-carboxylic acid (4-ethoxyphenyl)amide] came in with an inhibition at 10 µM on NA transporter of 58%.
Same read-out and setting: with `Cc1ccc(NC(=O)N2CCC3(CC2)CN(Cc2ccc(F)c(F)c2)C(=O)O3)cc1[N+](=O)[O-]` [Example 34, 3-(3,4-difluorobenzyl)-2-oxo-1-oxa-3,8-diazaspiro[4.5]decane-8-carboxylic acid (4-methyl-3-nitrophenyl)amide] the figure was 41%; with `O=C(Nc1ccc(Cl)c(C(F)(F)F)c1)N1CCC2(CC1)CN(Cc1ccccc1)C(=O)O2` [Example 37, 3-benzyl-2-oxo-1-oxa-3,8-diazaspiro[4.5]decane-8-carboxylic acid (4-chloro-3-trifluoromethylphenyl)amide], 47%; with `O=C(NCCc1ccccc1)N1CCC2(CC1)CN(Cc1ccccc1C(F)(F)F)C(=O)O2` [Example 49, 2-oxo-3-(2-trifluoromethylbenzyl)-1-oxa-3,8-diazaspiro[4.5]decane-8-carboxylic acid phenethylamide], 48%.
On NA transporter, `O=C(Nc1cccc(F)c1)N1CCC2(CC1)CN(Cc1ccccc1)C(=O)O2` [Example 60, 3-benzyl-2-oxo-1-oxa-3,8-diazaspiro[4.5]decane-8-carboxylic acid (3-fluorophenyl)amide] showed an inhibition at 10 µM of 58%.
As to `Cc1ccc(CN2CC3(CCN(CC(=O)Nc4ccc(S(=O)(=O)Nc5cc(Cl)cc(Cl)c5)cc4)CC3)OC2=O)cc1` [Example 75, N-[4-(3,5-dichlorophenylsulfamoyl)phenyl]-2-[3-(4-methylbenzyl)-2-oxo-1-oxa-3,8-diazaspiro[4.5]dec-8-yl]acetamide], on NA transporter, the inhibition at 10 µM was 67%.
For `O=C1OC2(CCN(C(=O)c3cccnc3Oc3ccccc3)CC2)CN1Cc1cccc(Br)c1` [Example 144, 3-(3-bromobenzyl)-8-(2-phenoxypyridine-3-carbonyl)-1-oxa-3,8-diazaspiro[4.5]decan-2-one], the inhibition at 10 µM against 5-HT transporter is 81%.
For the compound `COc1cccc(CC(=O)N2CCC3(CC2)CN(Cc2cc([N+](=O)[O-])ccc2OC)C(=O)O3)c1` [Example 145, 3-(2-methoxy-5-nitrobenzyl)-8-[2-(3-methoxyphenyl)acetyl]-1-oxa-3,8-diazaspiro[4.5]decan-2-one], at 10 µM the inhibition against 5-HT transporter was 77%.
Take `O=C1OC2(CCN(C(=O)c3cccnc3Oc3ccccc3)CC2)CN1Cc1ccc(F)c(F)c1` [Example 146, 3-(3,4-difluorobenzyl)-8-(2-phenoxypyridine-3-carbonyl)-1-oxa-3,8-diazaspiro[4.5]decan-2-one]: on 5-HT transporter, the inhibition at 10 µM amounted to 63%.
The same measure, in the same setting: with `Cc1cc(C(=O)N2CCC3(CC2)CN(Cc2cccc(C#N)c2)C(=O)O3)ccc1Br` [Example 147, 3-[8-(4-bromo-3-methylbenzoyl)-2-oxo-1-oxa-3,8-diazaspiro[4.5]dec-3-ylmethyl]benzonitrile] the figure was 73%; with `COc1ccc([N+](=O)[O-])cc1CN1CC2(CCN(C(=O)Cc3ccc(OC)c(OC)c3)CC2)OC1=O` [Example 150, 8-[2-(3,4-dimethoxyphenyl)acetyl]-3-(2-methoxy-5-nitrobenzyl)-1-oxa-3,8-diazaspiro[4.5]decan-2-one], 84%; with `N#Cc1ccccc1CN1CC2(CCN(C(=O)c3ccc([N+](=O)[O-])cc3Cl)CC2)OC1=O` [Example 151, 2-[8-(2-chloro-4-nitrobenzoyl)-2-oxo-1-oxa-3,8-diazaspiro[4.5]dec-3-ylmethyl]benzonitrile], 71%.
